Paper PMC3210473 (Biotechnology and bioengineering, 2011)

Legend:
sensor 6 (ERα 312-595) [1] = molecular target: T1, sensor 6 (ERα 312-595) (Homo sapiens, UniProt P03372); assay: split mVenus complementation, flow cytometry; assay type: cell-based
T1 sequence (P03372 312-595): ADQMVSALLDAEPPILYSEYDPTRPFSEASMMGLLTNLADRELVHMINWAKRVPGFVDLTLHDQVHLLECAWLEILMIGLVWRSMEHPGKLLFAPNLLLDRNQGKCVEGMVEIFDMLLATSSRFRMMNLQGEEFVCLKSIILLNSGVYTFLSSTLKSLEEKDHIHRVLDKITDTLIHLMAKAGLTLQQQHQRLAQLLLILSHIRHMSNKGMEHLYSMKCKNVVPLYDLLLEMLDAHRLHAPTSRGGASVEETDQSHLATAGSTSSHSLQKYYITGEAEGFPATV

sensor 6 (ERα 312-595) [2] = molecular target: T1, sensor 6 (ERα 312-595); assay: split mVenus complementation, flow cytometry; assay type: cell-based; conditions: transfected HeLa cells, up to […] ligand, […] h

Compound	EC50 (sensor 6 (ERα 312-595) [1]) [nM]	split mVenus complementation, flow cytometry (sensor 6 (ERα 312-595) [2])
C[C@]12CC[C@@H]3c4cc(O)c(O)cc4CC[C@H]3[C@@H]1CC[C@@H]2O [2-Hydroxyestradiol]	550 ± 100	–
C[C@]12CC[C@@H]3c4ccc(O)c(O)c4CC[C@H]3[C@@H]1CC[C@@H]2O [4-Hydroxyestradiol]	58 ± 4.7	–
C/C=C(/C(=C/C)c1ccc(O)cc1)c1ccc(O)cc1 [Dienestrol]	4.4 ± 0.87	–
O=c1c(-c2ccc(O)cc2)coc2cc(O)ccc12 [daidzein]	–	both of which caused an increase in fluorescence at micromolar concentrations
Clc1ccc(C(c2ccccc2Cl)C(Cl)(Cl)Cl)cc1 (centres unmarked) [o,p’-DDT]	–	The pesticide o,p’-DDT, and a PCB compound also displayed activation beginning at micromolar levels
